Test results as given in publication PMC4352194, “Physicochemical and Biological Properties of Oxovanadium(IV), Cobalt(II) and Nickel(II) Complexes with Oxydiacetate Anions” (Biological Trace Element Research, 2014).

How the values were obtained:
[1] = design: method as in doi:10.1016/j.molstruc.2011.03.036, PMID 23047227; settings: cited from earlier work
[2] = design: method as in earlier work; settings: fixed in the calculations; cited from earlier work
[3] = test system: Escherichia coli; test: Disc diffusion test; type: cell-based; settings: E. coli, 100 μg/disc
Method: (§1) The antimicrobial activity of complex compounds was assessed against Bacillus subtilis, Escherichia coli, Enterococcus faecalis, Pseudomonas aeruginosa, Staphylococcus aureus, Staphylococcus epidermidis (all strains were from the collection of the Department of Molecular Biology, University of Gdańsk). All bacteria were cultured in the Luria-Bertani (LB) broth at 310.15 K in the air with shaking. LB agar plates were prepared by the supplementation of LB broth with the 1.5 % bacteriological agar. Stock solutions of complex compounds were freshly prepared in the LB broth at the concentration of 25 mg/mL. Aliquots of 0.05 mL of bacterial culture at the optical density at 600 nm of 0.1 (inoculum 5 × 10^6 cells per plate) were spread on LB agar plates. Sterile filter paper discs (of 6 mm diameter) were impregnated with solutions of complex compounds prepared in the deionized water at the following amounts: 0.1, 0.2, 0.5 and 1.0 mg per disc and placed on agar plates. After an overnight incubation at 310.15 K, zones of bacterial growth inhibition were measured. Neomycin at the amount of 0.1 mg/disc was used as a control.

[4] = test system: Staphylococcus epidermidis; test: Disc diffusion test; type: cell-based; settings: S. epidermidis, 100 μg/disc
Method: as §1

[5] = test system: Pseudomonas aeruginosa; test: Disc diffusion test; type: cell-based; settings: P. aeruginosa, 100 μg/disc
Method: as §1

[6] = test system: Enterococcus faecalis; test: Disc diffusion test; type: cell-based; settings: E. faecalis, 100 μg/disc
Method: as §1

[7] = test system: Staphylococcus aureus; test: Disc diffusion test; type: cell-based; settings: S. aureus, 100 μg/disc
Method: as §1

[8] = test system: Bacillus subtilis; test: Disc diffusion test; type: cell-based; settings: B. subtilis, 100 μg/disc
Method: as §1

[9] = Potentiometric titration: dissociation constants of oxydiacetic acid in DMSO-water; type: physicochemical; settings: 298.15 K
Method: (§2) Potentiometric titrations were performed in a 30-mL thermostated (298.15 ± 0.10 K) cell using the Cerko Lab System microtitration unit fitted with a 5-mL Hamilton’s syringe, a pH combined electrode (Schott–BlueLine 16 pH type) and a self-made measuring cell equipped with a magnetic stirrer. The temperature was controlled using the Lauda E100 circulation thermostat. In aqueous solutions, the electrode was calibrated according to IUPAC recommendations. In binary systems (10–50 % v/v DMSO:H2O), the electrode calibration was performed by the Gran’s method using the GLEE program. For this purpose, the HClO4 solution was titrated with tetrabutylammonium hydroxide (Bu4NOH) solution both at the same mole fraction of organic solvent (10–50 (v/v%) DMSO). The syringe was calibrated by a weight method. The double distilled water of conductivity approximately 0.18 μS/cm was used throughout for the preparation of aqueous solutions. Other reagents used in the experiments were purchased from Sigma-Aldrich. They were as follows: VOSO4 (≥99.99 % trace metals basis), Co(NO3)2·6H2O (ACS reagent, ≥99 %), Ni(NO3)2·6H2O (99.999 %) and 2,2′-oxydiacetic acid (H2ODA, 98 %). All the solutions were prepared immediately before measurements. The compositions of the titrand solutions used in the experiments were as follows: (a) 2 mM Ni^2+ (Co^2+ or VO^2+), 5 mM H2ODA, 5 mM HClO4, (b) 2.5 mM H2ODA (for binary systems). The solutions (Vo = 5.0 mL) were potentiometrically titrated with the standardized 0.098 M NaOH solution or with the standardized 0.025 M Bu4NOH solution (in binary systems) in the pH range from 2.5 to 11.0. The titrant was added to the titrand in increments of 0.01 mL, with a pause of 60 s. Each titration was repeated at least three times in order to check the reproducibility of the data. The stability constants of the complexes were determined using the Hyperquad2008 program. The concentration distribution of various complex species existing in the solution as a function of pH was obtained using the HySS program.
To assess the influence of DMSO as a co-solvent on the stability of the complexes, its effect on the dissociation constants of H2ODA was investigated potentiometrically in the first instance. The representative pH-titration curves for oxydiacetic acid at 298.15 K in 0, 30 and 50 % (v/v) DMSO-water binary systems are shown in Fig. 2, whereas the calculated dissociation constants are collected in Table 3. In the calculations, the ionization constants of the solvents, pK s, were taken from the literature.

[10] = Potentiometric titration: stability constants of the complexes; type: physicochemical; settings: PT, 298.15 K, aqueous
Method: as §2
The equilibrium constants defined by Eqs. (1) and (2):1 pM+qL+rH=MpLqHr 2 βpqr=MpLqHr/M^pL^qH^r (where M is VO^2+, Co^2+ or Ni^2+, L denotes the oxydiacetate ion, H is the proton and p, q, r are stoichiometric coefficients for the reaction) were refined by least-squares calculations using the Hyperquad2008 (version 5.2.19) computer program. For the oxovanadium(IV) system, the formation of the hydroxo complexes of VO(IV) were taken into account in the calculations of the stability constants. The following formation constants were taken from the literature and were fixed: logβ 10–1 = −5.94, logβ 20–2 = −6.95 and logβ 10–3 = −18. The equilibrium models presented in Table 2 have given the best fitting of the calculated data to the experimental ones.

O.O.O.O.O.O=C([O-])COCC(=O)[O-].[Cu+2].c1ccc(-c2ccccn2)nc1 [[Cu(ODA)(bipy)(H2O)]∙4H2O]
SOD activity [1]: considerable SOD activity

Cc1ccncc1.O.O.O.O=C([O-])COCC(=O)[O-].[Cu+2] [[Cu(ODA)(4-pic)(H2O)]∙2H2O]
SOD activity [1]: considerable SOD activity

[O]=[V+2] [VO(IV)]
logβ 10–1 (hydroxo complex formation constant) [2]: −5.94
logβ 10–3 (hydroxo complex formation constant) [2]: −18
logβ 20–2 (hydroxo complex formation constant) [2]: −6.95

NC[C@@H]1O[C@H](O[C@H]2[C@@H](O)[C@H](O[C@@H]3[C@@H](O)[C@H](N)C[C@H](N)[C@H]3O[C@H]3O[C@H](CN)[C@@H](O)[C@H](O)[C@H]3N)O[C@@H]2CO)[C@H](N)[C@@H](O)[C@@H]1O [Neo, Neomycin, reference compound]
Zone of growth inhibition [3]: 15 mm
Zone of growth inhibition [4]: 25 mm
Zone of growth inhibition [5]: 17 mm
Zone of growth inhibition [6]: 16 mm
Zone of growth inhibition [7]: 18 mm
Zone of growth inhibition [8]: 21 mm

O=C(O)COCC(=O)O [H2ODA, 2,2′-oxydiacetic acid]
pK a1 (H2ODA = HODA^− + H^+) ([9]; DMSO 0 % v/v): 2.90 (±0.05)
pK a2 (HODA^− = ODA^2− + H^+) ([9]; DMSO 0 % v/v): 4.28 (±0.08)
pK a1 (H2ODA = HODA^− + H^+) ([9]; DMSO 10 % v/v): 3.11 (±0.04)
pK a2 (HODA^− = ODA^2− + H^+) ([9]; DMSO 10 % v/v): 4.52 (±0.02)
pK a1 (H2ODA = HODA^− + H^+) ([9]; DMSO 20 % v/v): 3.28 (±0.02)
pK a2 (HODA^− = ODA^2− + H^+) ([9]; DMSO 20 % v/v): 4.69 (±0.02)
pK a1 (H2ODA = HODA^− + H^+) ([9]; DMSO 30 % v/v): 3.42 (±0.04)
pK a2 (HODA^− = ODA^2− + H^+) ([9]; DMSO 30 % v/v): 4.91 (±0.02)
pK a1 (H2ODA = HODA^− + H^+) ([9]; DMSO 40 % v/v): 3.61 (±0.03)
pK a2 (HODA^− = ODA^2− + H^+) ([9]; DMSO 40 % v/v): 5.16 (±0.02)
pK a1 (H2ODA = HODA^− + H^+) ([9]; DMSO 50 % v/v): 3.76 (±0.03)
pK a2 (HODA^− = ODA^2− + H^+) ([9]; DMSO 50 % v/v): 5.46 (±0.03)
logβ 011 (LH) ([10]; fitted in the M = Co^2+ system): 4.16 (±0.09)
logβ 012 (LH2) ([10]; fitted in the M = Co^2+ system): 7.26 (±0.06)
logβ 011 (LH) ([10]; fitted in the M = Ni^2+ system): 4.12 (±0.01)
logβ 012 (LH2) ([10]; fitted in the M = Ni^2+ system): 6.97 (±0.01)
logβ 011 (LH) ([10]; fitted in the M = VO^2+ system): 4.20 (±0.05)
logβ 012 (LH2) ([10]; fitted in the M = VO^2+ system): 7.25 (±0.05)
